Test results: patent US8293772B2, “Triazole substituted aminobenzophenone compounds” (Leo Pharma A/S, priority 2004, dated 2012)

What was measured:
IL-1β = experiment: Inhibition of IL-1β secretion in LPS stimulated peripheral blood mononuclear cells; format: cell-based; details: LPS stimulated human PBMC, 18 hours, ELISA; read-out: The median inhibition concentration (IC50, nM) of IL-1β
Protocol: (§1) To study the effect of compounds of the present invention in vitro, the inhibition of IL-1β and TNF-α secretion was determined using the following procedure:
(§2) Cytokine production was measured in the media from lipopolysaccharide (LPS) stimulated peripheral blood mononuclear cells. The mononuclear cells were isolated from human peripheral blood by Lymphoprep® (Nycomed, Norway) fractionation and suspended in RPMI 1640 (growth medium) with foetal calf serum (FCS, 2%), at a concentration of 5×10^5 cells/ml. The cells were incubated in 24-well tissue culture plates in 1 ml aliquots. Test compounds were dissolved in dimethylsulfoxide (DMSO, 10 mM) and were diluted with the medium. Compounds were added to the cells for 30 minutes, then LPS ([…] final concentration) was added. The plates were incubated for 18 hours, and the concentration of IL-1β and TNF-α in the medium was determined by enzyme-linked immunosorbent assays. The median inhibitory concentrations (IC50) of the compounds were calculated.

TNF-α [1] = experiment: Inhibition of TNF-α secretion in LPS stimulated peripheral blood mononuclear cells; format: cell-based; details: LPS stimulated human PBMC, 18 hours, ELISA; read-out: The median inhibition concentration (IC50, nM) of TNF-α
Protocol: as §1, §2

p38α MAP kinase = target: T1, p38α MAP kinase (Homo sapiens, UniProt Q16539); experiment: p38α MAP kinase assay (immunoprecipitated FLAG-p38α from COS-1 cells, GST-ATF-2 substrate); format: biochemical
T1 construct: made in house; host or cells: COS-1 cells (transient co-transfection), immunoprecipitated with anti-FLAG M2 on Protein G Sepharose
T1 sequence (Q16539 whole entry): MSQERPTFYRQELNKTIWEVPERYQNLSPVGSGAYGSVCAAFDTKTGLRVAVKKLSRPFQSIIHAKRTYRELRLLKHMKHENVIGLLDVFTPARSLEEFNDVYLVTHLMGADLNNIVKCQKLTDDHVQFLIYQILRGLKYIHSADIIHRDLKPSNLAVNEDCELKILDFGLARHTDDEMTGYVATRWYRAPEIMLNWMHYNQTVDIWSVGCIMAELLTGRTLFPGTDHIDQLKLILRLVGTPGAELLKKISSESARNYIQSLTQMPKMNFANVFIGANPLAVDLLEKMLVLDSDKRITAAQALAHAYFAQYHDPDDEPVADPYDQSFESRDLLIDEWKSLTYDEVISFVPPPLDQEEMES
Protocol: COS-1 cells (derived from African green monkey kidney fibroblast-like cell containing wild-type T antigen under control of the SV40 promotor) were obtained from ATCC (ATCC no. CRL-1650) and grown in growth medium (DMEM without phenolred, 10% FCS, 2 mM L-glutamine, 100U penicillin and 100 μg streptomycin/ml) at 37° C. with 5% CO2. The cells were passaged twice a week by trypsination (0.25% trypsin, 1 mM EDTA in PBS) and were split 1:10. The medium was changed every second or third day. The cell line was regularly tested with the Mycoplasma PCR Primer Set (Stratagene) and found to be free of Mycoplasma. Tissue culture media, FCS, L-glutamine and penicillin and streptomycin are from Bribco BRL, Gaithersburg, Md., USA.
On day one COS-1 cells were seeded in 143 cm^2 petridish with a density of 2×10^4 celler/cm^2 in growth medium. At day 2 the cells were co-transfected with 5 μg (total) of experimental plasmid DNA, expressing the FLAG-p38α and FLAG-MKK6(EE). The plasmids were introduced into the COS-1 cells in serum-free medium using DOTAP™ (Boehringer-Mannheim, Mannheim, Germany). Plasmid DNA was prepared and purified using the QIAGEN EndoToxin-free Maxiprep-500 kit (Hilden, Germany). Briefly, DNA and DOTAP™ were mixed for exactly 15 min. at 37° C. in the CO2 incubator. […]

TNF-α [2] = experiment: In vivo screening model of LPS induced TNF-α response in mice; details: Mus musculus, po, 1 mg/kg p.o., 1 hour prior to LPS, plasma TNF-α 80-90 minutes after LPS, read-out: In vivo inhibition of LPS induced TNF-α production (in %)
Protocol: In Vivo Screening Model of LPS Induced TNF-α Response in Mice
To study the effect of compounds of the present invention in vivo, an in vivo screening model of LPS induced TNF-α response in mice was set up as follows: Groups of 6 mice (C3H/HeN, female, about 8 weeks (20 g), Bomholtgaard) were dosed with test compounds in suspension vehicle 1 hour prior to LPS administration (LPS from E. coli 055:B5, L-4005, Sigma). At time 0, the mice were dosed ip with 1.0 mg LPS/kg. After anesthetization with Hypnorm/Dormicum, the mice were bled from the periorbital venous plexus 80-90 minutes after LPS administration. The blood samples were sampled in EDTA stabilised tubes and centrifuged at 4000 rpm for 10 minutes at 4° C. The plasma level of TNF-α was analysed by ELISA. Compound 156 of WO 98/32730 was used as reference compound. The plasma level of TNF-α was determined using a sandwich ELISA. Microtiter plates were coated with a monoclonal antibody against mouse TNF-α, washed and blocked with a casein buffer. Samples of mouse TNF-α recombinant standards were added to the wells of the microtiter plates and incubated. All standards were tested in triplicate, all plasma samples in single. After sample and standard incubation, the plates were washed and incubated with biotinylated polyclonal secondary antibody against mouse TNF-α and washed. Enzyme conjugate was added to all wells and incubated. Substrate was added and the enzyme/substrate reaction stopped after 15 minutes at room temperature with 1M H2SO4. The colour development (OD) was measured at 450 nm on an ELISA reader and the background OD at 620 nm was subtracted. […] The results of the tested compounds are indicated as a percentage inhibition compared to an LPS treated control group. Compounds were tested at 1 mg/kg (p.o.). The Mann-Whitney test was used to compare drug treated groups to the LPS treated control group (p<0.05).

TNF-α [3] = experiment: as above; details: Mus musculus, ip, tested at 10 mg/kg i.p., plasma TNF-α 80-90 minutes after LPS, read-out: In vivo inhibition of LPS induced TNF-α production (in %)

SMILES | IC50 (IL-1β) [nM] | IC50 (TNF-α [1]) [nM] | p38 MAP kinase inhibition (p38α MAP kinase) | inhibition in vivo at 1 mg/kg (TNF-α [2]) [%] | inhibition in vivo at 10 mg/kg (TNF-α [3]) [%]
Cc1ccc(-c2cn(CCO)nn2)cc1C(=O)c1ccc(Nc2ccc(F)cc2F)cc1Cl [Compound 102, [2-Chloro-4-(2,4-difluoro-phenylamino)-phenyl]-{5-[1-(2-hydroxy-ethyl)-1H-[1,2,3]triazol-4-yl]-2-methyl-phenyl}-methanone] | 1.3 | 0.5 | potent p38 MAP kinase inhibitor | 94 | 
Cc1ccc(-c2cn(CCNS(C)(=O)=O)nn2)cc1C(=O)c1ccc(Nc2ccc(F)cc2F)cc1Cl [Compound 109, N-[2-(4-{3-[2-Chloro-4-(2,4-difluoro-phenylamino)-benzoyl]-4-methyl-phenyl}-[1,2,3]triazol-1-yl)-ethyl]-methanesulfonamide] | 1.9 | 1.2 |  | 79 | 
CCNC(=O)Cn1cc(-c2ccc(C)c(C(=O)c3ccc(Nc4ccc(F)cc4F)cc3Cl)c2)nn1 [Compound 112, 2-(4-{3-[2-Chloro-4-(2,4-difluoro-phenylamino)-benzoyl]-4-methyl-phenyl}-[1,2,3]triazol-1-yl)-N-ethyl-acetamide] | 5 | 0.3 |  | 49 | 
Cc1ccc(-c2cn(CCO)nn2)cc1C(=O)c1ccc(Nc2ccc(F)cc2)cc1Cl [Compound 122, [2-Chloro-4-(4-fluoro-phenylamino)-phenyl]-{5-[1-(2-hydroxy-ethyl)-1H-[1,2,3]triazol-4-yl]-2-methyl-phenyl}-methanone] | 1.4 | 0.9 |  | 96 | 
Cc1ccc(-n2cc(CCO)nn2)cc1C(=O)c1ccc(Nc2ccc(F)cc2)cc1Cl [Compound 127, [2-Chloro-4-(4-fluoro-phenylamino)-phenyl]-{5-[4-(2-hydroxy-ethyl)-[1,2,3]triazol-1-yl]-2-methyl-phenyl}-methanone] | 0.9 | 0.7 |  | 94 | 
Cc1ccccc1C(=O)c1ccc(Nc2ccccc2N)cc1Cl [Ref. comp. a, 4-(2-aminophenylamino)-2-chloro-2′-methylbenzophenone] |  |  |  |  | 23

More lines, in order of falling IC50 (IL-1β), values ahead:

IC50 (IL-1β) [nM] | IC50 (TNF-α [1]) [nM] | p38 MAP kinase inhibition (p38α MAP kinase) | SMILES | inhibition in vivo at 1 mg/kg (TNF-α [2]) [%] | inhibition in vivo at 10 mg/kg (TNF-α [3]) [%]
2.5 | 1.8 |  | Cc1ccc(-n2cc(C(C)(C)N)nn2)cc1C(=O)c1ccc(Nc2ccc(F)cc2F)cc1Cl [Compound 131, {5-[4-(1-Amino-1-methyl-ethyl)-[1,2,3]triazol-1-yl]-2-methyl-phenyl}-[2-chloro-4-(2,4-difluoro-phenylamino)-phenyl]-methanone] | 80 | 
1 | 0.5 |  | Cc1ccc(-c2cn(CC(N)=O)nn2)cc1C(=O)c1ccc(Nc2ccc(F)cc2)cc1Cl [Compound 125, 2-(4-{3-[2-Chloro-4-(4-fluoro-phenylamino)-benzoyl]-4-methyl-phenyl}-[1,2,3]triazol-1-yl)-acetamide] | 96 | 
0.8 | 0.5 |  | Cc1ccc(-c2cn(CC(O)CO)nn2)cc1C(=O)c1ccc(Nc2ccc(F)cc2)cc1Cl (centres unmarked) [Compound 124, [2-Chloro-4-(4-fluoro-phenylamino)-phenyl]-{5-[1-(2,3-dihydroxy-propyl)-1H-[1,2,3]triazol-4-yl]-2-methyl-phenyl}-methanone] | 77 | 
0.5 | 0.5 |  | Cc1ccc(-c2cn(CC(=O)N3CCOCC3)nn2)cc1C(=O)c1ccc(Nc2ccc(F)cc2F)cc1Cl [Compound 115, 2-(4-{3-[2-Chloro-4-(2,4-difluoro-phenylamino)-benzoyl]-4-methyl-phenyl}-[1,2,3]triazol-1-yl)-1-morpholin-4-yl-ethanone] | 70 | 
0.4 | 0.3 |  | Cc1ccc(-c2cn(CC(=O)N3CCCC3)nn2)cc1C(=O)c1ccc(Nc2ccc(F)cc2F)cc1Cl [Compound 114, 2-(4-{3-[2-Chloro-4-(2,4-difluoro-phenylamino)-benzoyl]-4-methyl-phenyl}-[1,2,3]triazol-1-yl)-1-pyrrolidin-1-yl-ethanone] | 86 | 
